The results in this text go back to the NIST ThermoML archive (doi:10.1016/j.tca.2013.03.013).

The conditions of this series: Crystal.

Numbers after ± are expanded uncertainties.

As for `CC1(C)O[C@@H]2C[C@H]3[C@@H]4C[C@H](F)C5=CC(=O)C=C[C@]5(C)[C@@]4(F)[C@@H](O)C[C@]3(C)[C@]2(C(=O)CO)O1` [fluocinolone acetonide], the Normal melting temperature by setting is: (DTA) 261.4 ± 0.7 °C; (visual observation) 262.00 ± 0.5 °C.
